# Test results taken from ChEMBL document CHEMBL4507288 (2021).
# Assays:
# [1] = biological target: Alpha-2A adrenergic receptor (Homo sapiens, UniProt P08913); experiment: GPCRScan assay: inhibition of Alpha2A; design: radioligand conc. used [nm] 1.0 – 3.0, parental cells stable MDCK
# Histamine H2 receptor = Histamine H2 receptor (Homo sapiens, UniProt P25021); settings: Compound concentration 10.0 uM
# [2] = biological target: 5-hydroxytryptamine receptor 1A (Homo sapiens, UniProt P08908); experiment: GPCRScan assay: inhibition of 5-HT1A; design: radioligand conc. used [nm] 0.5 – 1.0, parental cells stable CHO
# Chain of 5-hydroxytryptamine receptor 1A (P08908 whole entry): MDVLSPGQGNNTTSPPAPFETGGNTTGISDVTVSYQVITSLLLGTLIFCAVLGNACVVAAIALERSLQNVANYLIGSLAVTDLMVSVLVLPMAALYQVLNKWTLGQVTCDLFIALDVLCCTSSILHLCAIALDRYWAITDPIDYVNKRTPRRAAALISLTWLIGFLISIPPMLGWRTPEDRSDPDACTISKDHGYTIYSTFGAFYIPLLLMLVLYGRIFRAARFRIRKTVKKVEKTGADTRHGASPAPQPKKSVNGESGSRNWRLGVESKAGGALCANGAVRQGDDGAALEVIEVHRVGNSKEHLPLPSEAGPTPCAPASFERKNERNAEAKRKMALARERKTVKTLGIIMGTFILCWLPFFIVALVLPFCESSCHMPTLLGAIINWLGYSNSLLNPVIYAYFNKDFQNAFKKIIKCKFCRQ
# [3] = biological target: Beta-1 adrenergic receptor (Homo sapiens) (UniProt P08588); settings: Compound concentration 10.0 uM
# Chain of Beta-1 adrenergic receptor (Homo sapiens) (P08588 whole entry, looked up, the tested form may be a part): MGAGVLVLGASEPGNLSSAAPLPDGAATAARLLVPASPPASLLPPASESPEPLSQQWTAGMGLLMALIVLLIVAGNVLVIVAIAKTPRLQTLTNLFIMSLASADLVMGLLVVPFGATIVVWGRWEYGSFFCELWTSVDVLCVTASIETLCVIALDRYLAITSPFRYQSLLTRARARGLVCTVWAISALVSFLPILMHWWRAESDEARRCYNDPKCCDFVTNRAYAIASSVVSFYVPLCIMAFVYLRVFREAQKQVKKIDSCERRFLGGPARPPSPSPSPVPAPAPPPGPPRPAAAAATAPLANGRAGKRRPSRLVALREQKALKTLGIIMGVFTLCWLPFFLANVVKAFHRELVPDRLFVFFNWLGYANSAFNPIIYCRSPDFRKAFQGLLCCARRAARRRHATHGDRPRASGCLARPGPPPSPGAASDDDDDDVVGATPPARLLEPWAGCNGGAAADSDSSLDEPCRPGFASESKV
# [4] = biological target: Epithelial discoidin domain-containing receptor 1 (Homo sapiens) (UniProt Q08345); settings: Compound concentration 1000.0 nM
# [5] = biological target: Ephrin type-B receptor 2 (Homo sapiens) (UniProt P29323); settings: Compound concentration 1000.0 nM
# [6] = biological target: Proto-oncogene tyrosine-protein kinase Src (Homo sapiens) (UniProt P12931); settings: Compound concentration 1000.0 nM
# Chain of Proto-oncogene tyrosine-protein kinase Src (Homo sapiens) (P12931 2-536 limits assumed): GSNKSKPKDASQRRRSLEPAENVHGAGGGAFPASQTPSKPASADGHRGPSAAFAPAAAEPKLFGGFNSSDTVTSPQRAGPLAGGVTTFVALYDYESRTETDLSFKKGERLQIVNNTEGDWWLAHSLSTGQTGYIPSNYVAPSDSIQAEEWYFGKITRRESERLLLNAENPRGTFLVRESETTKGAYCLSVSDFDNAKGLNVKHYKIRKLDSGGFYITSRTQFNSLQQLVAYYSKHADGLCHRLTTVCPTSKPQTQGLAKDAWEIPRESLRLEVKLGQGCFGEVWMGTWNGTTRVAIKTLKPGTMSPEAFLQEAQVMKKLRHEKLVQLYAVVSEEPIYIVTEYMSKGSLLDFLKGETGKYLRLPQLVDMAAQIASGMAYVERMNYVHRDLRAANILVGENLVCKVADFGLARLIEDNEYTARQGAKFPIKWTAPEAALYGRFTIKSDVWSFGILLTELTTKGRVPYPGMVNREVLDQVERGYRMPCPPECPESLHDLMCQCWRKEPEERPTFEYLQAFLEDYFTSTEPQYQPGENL
# [7] = biological target: MAP kinase-activated protein kinase 2 (Homo sapiens) (UniProt P49137); settings: Compound concentration 1000.0 nM
# Chain of MAP kinase-activated protein kinase 2 (Homo sapiens) (P49137 whole entry, looked up): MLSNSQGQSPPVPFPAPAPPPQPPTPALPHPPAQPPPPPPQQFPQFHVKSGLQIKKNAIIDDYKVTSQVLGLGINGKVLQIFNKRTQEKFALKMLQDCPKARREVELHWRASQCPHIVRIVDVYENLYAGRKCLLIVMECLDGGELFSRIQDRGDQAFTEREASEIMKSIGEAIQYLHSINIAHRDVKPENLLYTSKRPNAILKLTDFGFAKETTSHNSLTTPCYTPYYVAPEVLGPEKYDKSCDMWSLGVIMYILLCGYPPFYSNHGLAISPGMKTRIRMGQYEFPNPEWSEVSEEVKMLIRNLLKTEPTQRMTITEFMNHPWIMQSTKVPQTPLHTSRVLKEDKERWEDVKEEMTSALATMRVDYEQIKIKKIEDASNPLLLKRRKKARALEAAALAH
# [8] = biological target: Misshapen-like kinase 1 (Homo sapiens) (UniProt Q8N4C8); settings: Compound concentration 1000.0 nM
# [9] = test system: Tyrosine-protein kinase ABL1 (Homo sapiens), P00519 [Q252H]; settings: Compound concentration 1000.0 nM
# [10] = biological target: Epidermal growth factor receptor (Homo sapiens) (UniProt P00533); settings: Compound concentration 1000.0 nM
# [11] = biological target: Dual specificity mitogen-activated protein kinase kinase 1 (Homo sapiens) (UniProt Q02750); settings: Compound concentration 1000.0 nM
# [12] = biological target: Beta-adrenergic receptor kinase 1 (Homo sapiens) (UniProt P25098); settings: Compound concentration 1000.0 nM
# [13] = biological target: Citron Rho-interacting kinase (Homo sapiens) (UniProt O14578); settings: Compound concentration 1000.0 nM
# [14] = biological target: SNF-related serine/threonine-protein kinase (Homo sapiens) (UniProt Q9NRH2); settings: Compound concentration 1000.0 nM
# [15] = biological target: Receptor-type tyrosine-protein kinase FLT3 (Homo sapiens) (UniProt P36888); settings: Compound concentration 1000.0 nM
# [16] = biological target: Serine/threonine-protein kinase Nek4 (Homo sapiens) (UniProt P51957); settings: Compound concentration 1000.0 nM
# [17] = test system: Proto-oncogene tyrosine-protein kinase receptor Ret (Homo sapiens), P07949 [V804M]; settings: Compound concentration 1000.0 nM
# [18] = biological target: Proto-oncogene tyrosine-protein kinase receptor Ret (Homo sapiens) (UniProt P07949); settings: Compound concentration 1000.0 nM
# [19] = biological target: Activin receptor type-1 (Homo sapiens) (UniProt Q04771); settings: Compound concentration 1000.0 nM
# Chain of Activin receptor type-1 (Homo sapiens) (Q04771 whole entry): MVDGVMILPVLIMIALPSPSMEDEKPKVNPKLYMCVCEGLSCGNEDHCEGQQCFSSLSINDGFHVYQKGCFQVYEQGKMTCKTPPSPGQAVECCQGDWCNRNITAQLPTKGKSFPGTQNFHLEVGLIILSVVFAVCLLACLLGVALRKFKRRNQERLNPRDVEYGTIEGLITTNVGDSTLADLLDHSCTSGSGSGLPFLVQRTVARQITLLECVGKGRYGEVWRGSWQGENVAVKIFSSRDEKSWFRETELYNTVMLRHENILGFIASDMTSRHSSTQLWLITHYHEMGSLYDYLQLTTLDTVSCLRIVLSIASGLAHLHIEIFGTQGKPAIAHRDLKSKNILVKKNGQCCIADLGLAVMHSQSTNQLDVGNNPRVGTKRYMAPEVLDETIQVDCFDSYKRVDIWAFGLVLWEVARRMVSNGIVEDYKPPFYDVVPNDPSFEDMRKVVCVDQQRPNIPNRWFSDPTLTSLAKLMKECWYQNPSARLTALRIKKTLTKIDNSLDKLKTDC
# [20] = biological target: Cyclin-dependent kinase 13 (Homo sapiens) (UniProt Q14004); settings: Compound concentration 1000.0 nM
# [21] = biological target: Ephrin type-B receptor 6 (Homo sapiens) (UniProt O15197); settings: Compound concentration 1000.0 nM
# [22] = biological target: cGMP-dependent protein kinase 1 (Homo sapiens) (UniProt Q13976); settings: Compound concentration 1000.0 nM
# Chain of cGMP-dependent protein kinase 1 (Homo sapiens) (Q13976 whole entry): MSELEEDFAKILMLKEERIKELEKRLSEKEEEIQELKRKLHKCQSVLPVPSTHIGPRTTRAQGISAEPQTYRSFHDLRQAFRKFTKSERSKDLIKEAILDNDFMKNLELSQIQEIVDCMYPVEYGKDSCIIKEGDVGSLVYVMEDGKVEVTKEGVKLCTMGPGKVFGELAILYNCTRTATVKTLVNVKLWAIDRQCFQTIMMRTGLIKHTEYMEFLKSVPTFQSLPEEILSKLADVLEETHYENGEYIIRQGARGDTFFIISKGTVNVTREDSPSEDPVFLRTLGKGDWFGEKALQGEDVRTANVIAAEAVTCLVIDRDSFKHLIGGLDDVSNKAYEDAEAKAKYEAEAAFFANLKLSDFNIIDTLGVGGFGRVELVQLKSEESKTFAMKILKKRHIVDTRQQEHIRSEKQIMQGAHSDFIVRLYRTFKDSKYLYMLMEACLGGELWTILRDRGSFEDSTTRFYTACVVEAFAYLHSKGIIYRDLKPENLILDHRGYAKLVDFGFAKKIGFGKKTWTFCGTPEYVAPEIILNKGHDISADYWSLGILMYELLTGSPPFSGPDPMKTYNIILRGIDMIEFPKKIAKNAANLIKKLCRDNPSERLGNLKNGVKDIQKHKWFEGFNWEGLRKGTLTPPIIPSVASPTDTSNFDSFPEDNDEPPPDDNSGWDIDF
# [23] = biological target: Fibroblast growth factor receptor 2 (Homo sapiens) (UniProt P21802); settings: Compound concentration 1000.0 nM
# Chain of Fibroblast growth factor receptor 2 (Homo sapiens) (P21802 22-821 limits assumed): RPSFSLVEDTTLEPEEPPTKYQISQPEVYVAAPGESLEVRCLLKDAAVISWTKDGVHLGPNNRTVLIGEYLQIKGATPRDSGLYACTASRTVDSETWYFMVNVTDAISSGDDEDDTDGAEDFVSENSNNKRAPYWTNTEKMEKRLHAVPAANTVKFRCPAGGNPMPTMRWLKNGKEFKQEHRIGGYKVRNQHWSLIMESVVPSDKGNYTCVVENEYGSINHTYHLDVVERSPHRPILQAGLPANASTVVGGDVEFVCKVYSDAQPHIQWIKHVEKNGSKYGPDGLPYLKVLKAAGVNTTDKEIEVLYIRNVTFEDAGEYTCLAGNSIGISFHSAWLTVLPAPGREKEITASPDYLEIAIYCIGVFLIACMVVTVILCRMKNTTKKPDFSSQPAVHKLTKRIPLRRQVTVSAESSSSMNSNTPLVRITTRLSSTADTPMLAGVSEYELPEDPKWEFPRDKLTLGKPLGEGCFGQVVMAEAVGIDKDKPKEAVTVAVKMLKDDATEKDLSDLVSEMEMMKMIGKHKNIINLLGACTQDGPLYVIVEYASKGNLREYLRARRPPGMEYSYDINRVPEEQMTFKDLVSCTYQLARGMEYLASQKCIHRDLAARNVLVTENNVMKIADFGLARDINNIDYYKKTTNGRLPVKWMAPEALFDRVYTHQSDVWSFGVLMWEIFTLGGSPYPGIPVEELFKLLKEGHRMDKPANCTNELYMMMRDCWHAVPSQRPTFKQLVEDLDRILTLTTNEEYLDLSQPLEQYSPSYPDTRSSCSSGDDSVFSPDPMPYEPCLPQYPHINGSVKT
# [24] = biological target: Vascular endothelial growth factor receptor 3 (Homo sapiens) (UniProt P35916); settings: Compound concentration 1000.0 nM
# [25] = biological target: Cyclin-dependent kinase 19 (Homo sapiens) (UniProt Q9BWU1); settings: Compound concentration 1000.0 nM
# [26] = test system: Receptor-type tyrosine-protein kinase FLT3 (Homo sapiens), P36888 [UNDEFINED MUTATION]; settings: Compound concentration 1000.0 nM
# [27] = biological target: LIM domain kinase 1 (Homo sapiens) (UniProt P53667); settings: Compound concentration 1000.0 nM
# [28] = biological target: Serine/threonine-protein kinase ULK1 (Homo sapiens) (UniProt O75385); settings: Compound concentration 1000.0 nM
# [29] = biological target: Mitogen-activated protein kinase kinase kinase kinase 2 (Homo sapiens) (UniProt Q12851); settings: Compound concentration 1000.0 nM
# Chain of Mitogen-activated protein kinase kinase kinase kinase 2 (Homo sapiens) (Q12851 whole entry): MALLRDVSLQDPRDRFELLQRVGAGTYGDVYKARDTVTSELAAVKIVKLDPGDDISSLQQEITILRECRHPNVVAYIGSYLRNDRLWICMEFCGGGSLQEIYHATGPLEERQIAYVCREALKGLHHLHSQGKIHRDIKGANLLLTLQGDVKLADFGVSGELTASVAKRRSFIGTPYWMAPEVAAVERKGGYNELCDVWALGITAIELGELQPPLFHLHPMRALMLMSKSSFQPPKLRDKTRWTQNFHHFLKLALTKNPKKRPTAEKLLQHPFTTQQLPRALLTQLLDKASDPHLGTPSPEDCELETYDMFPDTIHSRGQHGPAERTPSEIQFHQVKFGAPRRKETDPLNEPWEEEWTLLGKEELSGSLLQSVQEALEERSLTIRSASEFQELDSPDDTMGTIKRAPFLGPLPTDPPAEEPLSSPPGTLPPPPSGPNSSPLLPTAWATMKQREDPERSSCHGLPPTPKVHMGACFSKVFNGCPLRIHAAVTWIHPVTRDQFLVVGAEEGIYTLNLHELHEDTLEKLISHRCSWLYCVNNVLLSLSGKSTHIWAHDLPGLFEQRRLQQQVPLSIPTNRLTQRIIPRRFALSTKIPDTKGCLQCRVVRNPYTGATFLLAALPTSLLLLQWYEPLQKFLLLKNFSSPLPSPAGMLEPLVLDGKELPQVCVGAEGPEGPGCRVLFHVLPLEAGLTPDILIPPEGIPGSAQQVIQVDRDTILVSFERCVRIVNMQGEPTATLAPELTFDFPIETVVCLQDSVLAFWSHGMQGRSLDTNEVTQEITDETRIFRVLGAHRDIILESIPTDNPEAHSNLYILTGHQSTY
# [30] = biological target: Cyclin-dependent kinase-like 2 (Homo sapiens) (UniProt Q92772); settings: Compound concentration 1000.0 nM
# [31] = biological target: Tyrosine-protein kinase ABL1 (Homo sapiens) (UniProt P00519); settings: Compound concentration 1000.0 nM
# [32] = test system: Tyrosine-protein kinase ABL1 (Homo sapiens), P00519 [T315I]; settings: Compound concentration 1000.0 nM
# [33] = biological target: Interleukin-1 receptor-associated kinase 3 (Homo sapiens) (UniProt Q9Y616); settings: Compound concentration 1000.0 nM
# [34] = biological target: MAP/microtubule affinity-regulating kinase 3 (Homo sapiens) (UniProt P27448); settings: Compound concentration 1000.0 nM
# [35] = biological target: Cyclin-dependent kinase 4 (Homo sapiens) (UniProt P11802); settings: Compound concentration 1000.0 nM
# Chain of Cyclin-dependent kinase 4 (Homo sapiens) (P11802 whole entry): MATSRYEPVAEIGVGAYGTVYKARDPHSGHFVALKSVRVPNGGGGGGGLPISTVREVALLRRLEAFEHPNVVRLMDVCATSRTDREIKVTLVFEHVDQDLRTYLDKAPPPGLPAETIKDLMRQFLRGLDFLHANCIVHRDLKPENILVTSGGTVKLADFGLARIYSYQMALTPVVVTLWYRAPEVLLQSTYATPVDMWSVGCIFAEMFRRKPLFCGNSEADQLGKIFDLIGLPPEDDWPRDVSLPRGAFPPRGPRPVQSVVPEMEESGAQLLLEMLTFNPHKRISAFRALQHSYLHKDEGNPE
# [36] = biological target: NUAK family SNF1-like kinase 1 (Homo sapiens) (UniProt O60285); settings: Compound concentration 1000.0 nM
# [37] = biological target: Wee1-like protein kinase 2 (Homo sapiens) (UniProt P0C1S8); settings: Compound concentration 1000.0 nM
# [38] = biological target: Tyrosine-protein kinase JAK3 (Homo sapiens) (UniProt P52333); settings: Compound concentration 1000.0 nM
# [39] = biological target: High affinity nerve growth factor receptor (Homo sapiens) (UniProt P04629); settings: Compound concentration 1000.0 nM
# [40] = biological target: Serine/threonine-protein kinase 35 (Homo sapiens) (UniProt Q8TDR2); settings: Compound concentration 1000.0 nM
# [41] = biological target: Mitogen-activated protein kinase 1 (Homo sapiens) (UniProt P28482); settings: Compound concentration 1000.0 nM
# [42] = biological target: Casein kinase I isoform alpha (Homo sapiens) (UniProt P48729); settings: Compound concentration 1000.0 nM
# [43] = test system: Leucine-rich repeat serine/threonine-protein kinase 2 (Homo sapiens), Q5S007 [G2019S]; settings: Compound concentration 1000.0 nM
# [44] = test system: Receptor-type tyrosine-protein kinase FLT3 (Homo sapiens), P36888 [N841I]; settings: Compound concentration 1000.0 nM
# [45] = biological target: Ribosomal protein S6 kinase beta-1 (Homo sapiens) (UniProt P23443); settings: Compound concentration 1000.0 nM
structure (smiles),measurement,setting,value
CC(C)(C)OC(=O)N1CCCC1CNC1CCC(c2cc(F)ccc2F)(S(=O)(=O)c2ccc(Cl)cc2)CC1 (stereo unspecified) [GSI-NC],Ki,[1],237 nM
same,inhibition,Histamine H2 receptor,53.1%
same,Ki,[2],2770 nM
same,inhibition,[3],3.61%
O=S(=O)(NC1CCC(c2cc(F)ccc2F)(S(=O)(=O)c2ccc(Cl)cc2)CC1)C(F)(F)F (stereo unspecified) [MRK-560],residual activity,[4],100%
same,residual activity,[5],100%
same,residual activity,[6],100%
same,residual activity,[7],93%
same,residual activity,[8],100%
same,residual activity,[9],84%
same,residual activity,[10],100%
same,residual activity,[11],100%
same,residual activity,[12],73%
same,residual activity,[13],0%
same,residual activity,[14],100%
same,residual activity,[15],100%
same,residual activity,[16],100%
same,residual activity,[17],100%
same,residual activity,[18],92%
same,residual activity,[19],92%
same,residual activity,[20],92%
same,residual activity,[21],100%
same,residual activity,[22],100%
same,residual activity,[23],84%
same,residual activity,[24],100%
same,residual activity,[25],100%
same,residual activity,[26],91%
same,residual activity,[27],86%
same,residual activity,[28],84%
same,residual activity,[29],100%
same,residual activity,[30],100%
same,residual activity,[31],87%
same,residual activity,[32],90%
same,residual activity,[33],98%
same,residual activity,[34],79%
same,residual activity,[35],81%
same,residual activity,[36],83%
same,residual activity,[37],100%
same,residual activity,[38],100%
same,residual activity,[39],76%
same,residual activity,[40],100%
same,residual activity,[41],100%
same,residual activity,[42],100%
same,residual activity,[43],100%
same,residual activity,[44],100%
same,residual activity,[45],100%
